Experiments:
[1] = tested on: Botryotinia fuckeliana (Botrytis cinerea); assay: Botryotinia fuckeliana (Botrytis cinerea) / liquid culture (Gray Mould); assay type: cell-based; settings: 72 h, 200 ppm in the formulation, inhibition of growth determined photometrically 3-4 days after application, read-out: disease control
Description: Botryotinia fuckeliana (Botrytis cinerea)/Liquid Culture (Gray Mould) Conidia of the fungus from cryogenic storage are directly mixed into nutrient broth (Vogels broth). After placing a (DMSO) solution of test compound into a microtiter plate (96-well format), the nutrient broth containing the fungal spores is added. The test plates are incubated at 24° C. and the inhibition of growth is determined photometrically 3-4 days after application.

[2] = tested on: Monocraphella nivalis (Microdochium nivale); assay: Monocraphella nivalis (Microdochium nivale) / liquid culture (Foot Rot Cereals); assay type: cell-based; settings: 96 h, 200 ppm in the formulation, inhibition of growth determined photometrically 4-5 days after application, read-out: disease control
Description: Monocraphella nivalis (Microdochium nivale)/Liquid Culture (Foot Rot Cereals) Conidia of the fungus from cryogenic storage are directly mixed into nutrient broth (PDB potato dextrose broth). After placing a (DMSO) solution of test compound into a microtiter plate (96-well format), the nutrient broth containing the fungal spores is added. The test plates are incubated at 24° C. and the inhibition of growth is determined photometrically 4-5 days after application.

[3] = tested on: Mycosphaerella arachidis (Cercospora arachidicola); assay: Mycosphaerella arachidis (Cercospora arachidicola) / liquid culture (Early Leaf Spot); assay type: cell-based; settings: 96 h, 200 ppm in the formulation, inhibition of growth determined photometrically 4-5 days after application, read-out: disease control
Description: Mycosphaerella arachidis (Cercospora arachidicola)/Liquid Culture (Early Leaf Spot) Conidia of the fungus from cryogenic storage are directly mixed into nutrient broth (PDB potato dextrose broth). After placing a (DMSO) solution of test compound into a microtiter plate (96-well format), the nutrient broth containing the fungal spores is added. The test plates are incubated at 24° C. and the inhibition of growth is determined photometrically 4-5 days after application.

[4] = tested on: Mycosphaerella Raminicola (Septoria tritici); assay: Mycosphaerella Raminicola (Septoria tritici) / liquid culture (Septoria Blotch); assay type: cell-based; settings: 200 ppm in the formulation, inhibition of growth determined photometrically 4 to 5 days after application, read-out: disease control
Description: Mycosphaerella Raminicola (Septoria tritici)/Liquid Culture (Septoria Blotch) Conidia of the fungus from cryogenic storage are directly mixed into nutrient broth (PDB potato dextrose broth). After placing a (DMSO) solution of test compound into a microtiter plate (96-well format), the nutrient broth containing the fungal spores is added. The test plates are incubated at 24° C. and the inhibition of growth is determined photometrically 4 to 5 days after application.

[5] = tested on: Phaeosphaeria Nodorum (Septoria nodorum); assay: Phaeosphaeria nodorum (Septoria nodorum) / wheat / leaf disc preventative (Glume Blotch); assay type: in vivo; settings: Parastagonospora nodorum, foliar, 200 ppm in the formulation, compared to untreated, 5-7 days after application, read-out: disease control
Description: Phaeosphaeria Nodorum (Septoria nodorum)/Wheat/Leaf Disc Preventative (Glume Blotch) Wheat leaf segments cv. Kanzler are placed on agar in a multiwell plate (24-well format) and sprayed with the formulated test compound diluted in water. The leaf disks are inoculated with a spore suspension of the fungus 2 days after application. The inoculated test leaf disks are incubated at 20° C. and 75% rh under a light regime of 12 h light/12 h darkness in a climate cabinet and the activity of a compound is assessed as percent disease control compared to untreated when an appropriate level of disease damage appears in untreated check leaf disks (5-7 days after application).

[6] = tested on: Puccinia recondita f. Sp. Tritici; assay: Puccinia recondita f. sp. tritici / wheat / leaf disc preventative (Brown Rust); assay type: in vivo; settings: foliar, 168 h, 200 ppm in the formulation, compared to untreated, 7-9 days after application, read-out: disease control
[7] = tested on: Glomerella lacenarium (Colletotrichum lacenarium); assay: Glomerella lacenarium (Colletotrichum lacenarium) / liquid culture (Anthracnose); assay type: cell-based; settings: 200 ppm in the formulation, inhibition of growth measured photometrically 3-4 days after application, read-out: disease control
Description: Glomerella lacenarium (Colletotrichum lacenarium)/Liquid Culture (Anthracnose) Conidia of the fungus from cryogenic storage are directly mixed into nutrient broth (PDB potato dextrose broth). After placing a (DMSO) solution of test compound into a microtiter plate (96-well format), the nutrient broth containing the fungal spores is added. The test plates are incubated at 24° C. and the inhibition of growth is measured photometrically 3-4 days after application.

[8] = tested on: Magnaporthe risea (Pyricularia Oryzae); assay: whole plant or invertebrate; assay type: in vivo; settings: foliar, read-out: disease control

COc1ccnc(C(=O)N[C@@H](C)C(=O)OC(C)C(C)(C)c2ccccc2)c1O (stereo partly drawn) [I.a.001, (1,2-dimethyl-2-phenyl-propyl) (2S)-2-[(3-hydroxy-4-methoxy-pyridine-2-carbonyl)amino]propanoate]
≥ 80%: inhibition of growth at 200 ppm [1] | inhibition of growth at 200 ppm [2] | inhibition of growth at 200 ppm [3] | inhibition of growth at 200 ppm [4] | pest or weed control at 200 ppm [5] | pest or weed control at 200 ppm [6]

COc1ccnc(C(=O)N[C@@H](C)C(=O)OC(C)C2(c3ccccc3)CC2c2ccccc2)c1O (stereo partly drawn) [I.a.010, 1-(1,2-diphenylcyclo-propyl)ethyl (2S)-2-[(3-hydroxy-4-methoxy-pyridine-2-carbonyl)-amino]propanoate]
≥ 80%: inhibition of growth at 200 ppm [1] | inhibition of growth at 200 ppm [7] | pest or weed control at 200 ppm [8] | inhibition of growth at 200 ppm [2] | inhibition of growth at 200 ppm [3] | inhibition of growth at 200 ppm [4] | pest or weed control at 200 ppm [5] | pest or weed control at 200 ppm [6]

COc1ccnc(C(=O)N[C@@H](C)C(=O)OC(C)C2(c3ccccc3)CCCCC2)c1O (stereo partly drawn) [I.a.015, 1-(1-phenylcyclohexyl)-ethyl (2S)-2-[(3-hydroxy-4-methoxy-pyridine-2-carbonyl)amino]propanoate]
≥ 80%: inhibition of growth at 200 ppm [1] | inhibition of growth at 200 ppm [7] | inhibition of growth at 200 ppm [2] | inhibition of growth at 200 ppm [3] | inhibition of growth at 200 ppm [4] | pest or weed control at 200 ppm [5] | pest or weed control at 200 ppm [6]

COc1ccnc(C(=O)N[C@@H](C)C(=O)OC(C)C(C)(C)c2cc(F)ccc2F)c1O (stereo partly drawn) [I.ah.001, [2-(2,5-difluoro-phenyl)-1,2-dimethyl-propyl] (2S)-2-[(3-hydroxy-4-methoxy-pyridine-2-carbonyl)-amino]propanoate]
≥ 80%: inhibition of growth at 200 ppm [7] | pest or weed control at 200 ppm [8] | inhibition of growth at 200 ppm [2] | inhibition of growth at 200 ppm [3] | inhibition of growth at 200 ppm [4] | pest or weed control at 200 ppm [5] | pest or weed control at 200 ppm [6]

COc1ccnc(C(=O)N[C@@H](C)C(=O)OC(C)C2(c3ccc(Cl)cc3)CC2)c1O (stereo partly drawn) [I.k.006, 1-[1-(4-chlorophenyl)-cyclopropyl]ethyl (2S)-2-[(3-hydroxy-4-methoxy-pyridine-2-carbonyl)amino]propanoate]
≥ 80%: inhibition of growth at 200 ppm [1] | inhibition of growth at 200 ppm [2] | inhibition of growth at 200 ppm [3] | inhibition of growth at 200 ppm [4] | pest or weed control at 200 ppm [5] | pest or weed control at 200 ppm [6]

COc1ccnc(C(=O)N[C@@H](C)C(=O)OC(C)C2(c3ccc(Cl)cc3)CCC2)c1O (stereo partly drawn) [I.k.012, 1-[1-(4-chlorophenyl)-cyclobutyl]ethyl (2S)-2-((3-hydroxy-4-methoxy-pyridine-2-carbonyl)-amino]propanoate]
≥ 80%: inhibition of growth at 200 ppm [1] | inhibition of growth at 200 ppm [7] | pest or weed control at 200 ppm [8] | inhibition of growth at 200 ppm [2] | inhibition of growth at 200 ppm [3] | inhibition of growth at 200 ppm [4] | pest or weed control at 200 ppm [5] | pest or weed control at 200 ppm [6]

COc1ccnc(C(=O)N[C@@H](C)C(=O)OC(C)C2(c3ccc(Cl)cc3)CCCCC2)c1O (stereo partly drawn) [I.k.015, 1-[1-(4-chlorophenyl)-cyclohexyl]ethyl (2S)-2-[(3-hydroxy-4-methoxy-pyridine-2-carbonyl)amino]propanoate]
≥ 80%: inhibition of growth at 200 ppm [1] | inhibition of growth at 200 ppm [7] | inhibition of growth at 200 ppm [2] | inhibition of growth at 200 ppm [3] | inhibition of growth at 200 ppm [4] | pest or weed control at 200 ppm [5] | pest or weed control at 200 ppm [6]

COc1ccnc(C(=O)N[C@@H](C)C(=O)OC(C)C2(c3ccc(Cl)cc3)CCCCC2)c1OC(C)=O (stereo partly drawn) [I.k.075, 1-[1-(4-chlorophenyl)-cyclohexyl]ethyl (2S)-2-[(3-acetoxy-4-methoxy-pyridine-2-carbonyl)-amino]propanoate]
≥ 80%: inhibition of growth at 200 ppm [7] | pest or weed control at 200 ppm [8] | inhibition of growth at 200 ppm [3] | inhibition of growth at 200 ppm [4] | pest or weed control at 200 ppm [5] | pest or weed control at 200 ppm [6]

COc1ccnc(C(=O)N[C@@H](C)C(=O)OC(C)C(C)(C)c2ccc(Br)cc2)c1O (stereo partly drawn) [I.m.001, [2-(4-bromophenyl)-1,2-dimethyl-propyl] (2S)-2-[(3-hydroxy-4-methoxy-pyridine-2-carbonyl)amino]propanoate]
≥ 80%: inhibition of growth at 200 ppm [1] | inhibition of growth at 200 ppm [7] | inhibition of growth at 200 ppm [2] | inhibition of growth at 200 ppm [3] | inhibition of growth at 200 ppm [4] | pest or weed control at 200 ppm [5] | pest or weed control at 200 ppm [6]

COc1ccnc(C(=O)N[C@@H](C)C(=O)OC(C)C2(c3cccc4ccccc34)CC2)c1O (stereo partly drawn) [I.v.006, 1-[1-(1-naphthyl)cyclo-propyl]ethyl (2S)-2-[(3-hydroxy-4-methoxy-pyridine-2-carbonyl)-amino]propanoate]
≥ 80%: inhibition of growth at 200 ppm [7] | inhibition of growth at 200 ppm [2] | inhibition of growth at 200 ppm [3] | inhibition of growth at 200 ppm [4] | pest or weed control at 200 ppm [5] | pest or weed control at 200 ppm [6]

COc1ccnc(C(=O)N[C@@H](C)C(=O)OC(C)C2(c3cccc4ccccc34)CC2)c1OC(C)=O (stereo partly drawn) [I.v.066, 1-[1-(1-naphthyl)cyclo-propyl]ethyl (2S)-2-[(3-acetoxy-4-methoxy-pyridine-2-carbonyl)-amino]propanoate]
≥ 80%: inhibition of growth at 200 ppm [1] | inhibition of growth at 200 ppm [7] | pest or weed control at 200 ppm [8] | inhibition of growth at 200 ppm [2] | inhibition of growth at 200 ppm [3] | inhibition of growth at 200 ppm [4] | pest or weed control at 200 ppm [5] | pest or weed control at 200 ppm [6]

— patent publication US11395489B2, “Microbiocidal picolinamide derivatives” (Syngenta Participations AG, priority 2017, dated 2022)
